According to EPA's ToxValDB 9.5 (doi:10.2903/j.efsa.2006.65r):
Converted amounts (≈) assume the structure as drawn. “And” between values parts separate entries of the source, which are not always exact repeats. Equal values may be shown once.

Columns and labels:
Bibionidae = conditions: chronic/long-term
Daphnia magna = conditions: chronic/long-term; duration: 21 days
Neomysis kadiakensis = conditions: chronic/long-term; duration: 28 days
Pontoscolex corethrurus = conditions: acute; mortality
Lepomis macrochirus = conditions: acute, duration: 96 hours
Aphidius rhopalosiphi = experiment: LR50; higher = less toxic; conditions: not reported; mortality
Canidae = conditions: oral, Dog Other, clinical signs
Apis mellifera = conditions: acute, mortality
[1] = short-term, duration: 5 days, oral, diet, food consumption

N#Cc1nn(-c2c(Cl)cc(C(F)(F)F)cc2Cl)c(N)c1C(F)(F)F [Fipronil desulfinyl]
NOEL (Colinus virginianus; [1]): 7.12 mg/kg-day

N#Cc1nn(-c2c(Cl)cc(C(F)(F)F)cc2Cl)c(N)c1SC(F)(F)F [Fipronil sulfide]
NOEC (Bibionidae; duration: 28 days): 0.000117 mg/L and 0.000193 mg/kg | NOEC (Daphnia magna): 0.013 mg/L | LC50 (Oncorhynchus mykiss; acute, duration: 96 hours, mortality): 0.0295 µg/mL (≈ 0.07 µM) | NOEC (Neomysis kadiakensis): 4.6e-06 mg/L | LC50 (Pontoscolex corethrurus): > 1000 mg/kg | NOEL (Colinus virginianus; [1]): 6.98 mg/kg-day

N#Cc1nn(-c2c(Cl)cc(C(F)(F)F)cc2Cl)c(N)c1S(=O)(=O)C(F)(F)F [Fipronil sulfone]
NOEC (Bibionidae): 6.9e-05 mg/L | NOEC (Bibionidae; duration: 28 days): 0.000165 mg/kg | LC50 (Pontoscolex corethrurus): > 1000 mg/kg | NOEL (Colinus virginianus; [1]): 7.83 mg/kg-day | LC50 (Lepomis macrochirus): 0.025 µg/mL (≈ 0.0552 µM)

N#Cc1nn(-c2c(Cl)cc(C(F)(F)F)cc2Cl)c(N)c1S(=O)C(F)(F)F (centres undefined) [Fipronil]
LR50 (Aphidius rhopalosiphi): 0.01 g/ha | LC50 (Cyprinodon variegatus; acute, duration: 96 hours): 0.13 µg/mL (≈ 0.297 µM) | NOEC (Cyprinodon variegatus; chronic/long-term, duration: 138 days): 0.006 mg/L | NOEC (Bibionidae): 0.000193 mg/kg | NOEC (Bibionidae; duration: 28 days): 0.000117 mg/L | NOEC (Daphnia magna): 0.0098 mg/L | NOEC (Oncorhynchus mykiss; chronic/long-term, duration: 90 days): 0.015 mg/L | NOAEL (Canidae; chronic, duration: 1 years): 0.35 mg/kg-day | NOAEL (Canidae; subchronic, duration: 90 days): 0.35 mg/kg-day | LC50 (Tagia sp.; acute, mortality): > 1000 mg/kg | NOEC (Tagia sp.; chronic/long-term): 1000 mg/kg | LD50 (Apis mellifera; dermal): 0.00593 µg/piece | LD50 (Apis mellifera; oral, unspecified): 0.00417 µg/piece | LD50 (Colinus virginianus; acute, oral, mortality): 11.3 mg/kg | NOEL (Colinus virginianus; reproduction developmental): 0.88 mg/kg-day | NOEL (Colinus virginianus; [1]): 3.77 mg/kg-day | LC50 (Lepomis macrochirus; mortality): 0.0852 µg/mL (≈ 0.195 µM) | LD50 (Rattus norvegicus; acute, oral, M, mortality): 92 mg/kg | NOAEL (Rattus norvegicus; chronic, duration: 2 years, clinical signs): 0.02 mg/kg-day | NOAEL (Rattus norvegicus; developmental, development): 0.9 mg/kg-day | NOEL (Rattus norvegicus; reproduction developmental, M, reproduction): 2.53 mg/kg-day | NOAEL (Rattus norvegicus; subchronic, duration: 90 days, oral, clinical signs): 0.35 mg/kg-day
